According to patent US4861788A, “Antibacterial 1-normon-2-yl-heterocyclic compounds” (Beecham Group plc, priority 1983, dated 1989):
≈ marks a conversion by molar mass, not a printed value. Read-outs that look alike come from different tables or passages of the source.

Legend:
M. hyopneumoniae JF 435 = experiment: MIC against Mycoplasma in vitro (Friis broth with agarose); format: cell-based; conditions: Mesomycoplasma hyopneumoniae, JF435, 144 h
M. hyopneumoniae Str. 11 = experiment: as above; format: cell-based; conditions: Mesomycoplasma hyopneumoniae
M. hyopneumoniae MS 16 = experiment: as above; format: cell-based; conditions: Mesomycoplasma hyopneumoniae, MS16, 144 h
M. hyopneumoniae UCD 1 = experiment: as above; format: cell-based; conditions: Mesomycoplasma hyopneumoniae, UCD1, 144 h
M. hyopneumoniae TAM 6N = experiment: as above; format: cell-based; conditions: Mesomycoplasma hyopneumoniae, TAM6N, 144 h
[1] = tested on: M. hyopneumoniae NCTC 101101; experiment: as above; format: cell-based; conditions: Mesomycoplasma hyopneumoniae, NCTC101101, 144 h
M. hyorhinis ATCC 23234 = experiment: as above; format: cell-based; conditions: Mesomycoplasma hyorhinis, ATCC23234, 144 h
M. hyorhinis ATCC 25021 = experiment: as above; format: cell-based; conditions: Mesomycoplasma hyorhinis, ATCC25021, 144 h; M. hyorhinis ATCC 25021; 6 days at 37° C; read-out: MIC
[2] = tested on: M. hyosynoviae ATCC 25591; experiment: as above; format: cell-based; conditions: 144 h
[3] = tested on: M. bovigenitalium ATCC 14173; experiment: as above; format: cell-based; conditions: 144 h
M. dispar NCTC 10125 = experiment: as above; format: cell-based; conditions: 144 h; M. dispar NCTC 10125; 6 days at 37° C; read-out: MIC
M. pneumoniae ATCC 15492 = experiment: as above; format: cell-based; conditions: Mycoplasmoides pneumoniae, ATCC15492, 144 h; M. pneumoniae ATCC 15492; 6 days at 37° C; read-out: MIC
Bacillus subtilis 6633 = experiment: MIC against human bacteria in vitro (nutrient agar, chocolated horse blood); format: cell-based; conditions: human; Bacillus subtilis 6633; 18 hours at 37° C; read-out: MIC
Method: (§1) The activity of the normonyl derivaties of the Examples against various bacteria which are important in diseases of humans, was assayed in vitro using serial dilutions in nurient agar with 5% chocolated horse blood.

E. coli ESS = experiment: as above; format: cell-based; conditions: Escherichia coli; human; E. coli ESS; 18 hours at 37° C; read-out: MIC
Method: as §1

Staph. aureus W2827 = experiment: as above; format: cell-based; conditions: Staphylococcus aureus; human; Staph. aureus W2827; 18 hours at 37° C; read-out: MIC
Method: as §1

Strep. faecalis I = experiment: as above; format: cell-based; conditions: Enterococcus faecalis; human; Strep. faecalis I; 18 hours at 37° C; read-out: MIC
Method: as §1

E. coli NCTC 10418 = experiment: MIC against veterinary bacteria in vitro (Diagnostic Sensitivity Test Agar); conditions: Escherichia coli, NCTC10418, 18 h
Method: (§2) The activity of the normonyl derivatives of the Examples against various veterinarily important bacteria, was assayed in vitro using two-fold serial dilutions in Diagnostic Sensitivity Test Agar inoculated with 10^4 organisms.

E. coli E1 = experiment: as above; conditions: Escherichia coli, E1, 18 h
Method: as §2

Bord. bronchiseptica B08 = experiment: as above; conditions: Bordetella bronchiseptica, B08, 18 h
Method: as §2

Bord. bronchiseptica B09 = experiment: as above; conditions: Bordetella bronchiseptica, B09, 18 h
Method: as §2

Past. multocida PA1 = experiment: as above; conditions: Pasteurella multocida, PA1, 18 h
Method: as §2

Past. haemolytica PA5 = experiment: as above; conditions: Mannheimia haemolytica, PA5, 18 h
Method: as §2

[4] = tested on: Staph. aureus B4 (pen. resistant); experiment: as above; conditions: Staphylococcus aureus, 18 h
Method: as §2

[5] = tested on: Staph. aureus 152 (pen. sens); experiment: as above; conditions: Staphylococcus aureus, 18 h
Method: as §2

Staph. aureus Oxford = experiment: as above; conditions: Staphylococcus aureus, 18 h
Method: as §2

[6] = tested on: Strep. suis (group D) SPS11; experiment: as above; conditions: Streptococcus suis, 18 h
Method: as §2

Strep. uberis SPU1 = experiment: as above; conditions: Streptococcus uberis, SPU1, 18 h
Method: as §2

Strep. dysgalactiae SPD1 = experiment: as above; conditions: Streptococcus dysgalactiae, SPD1, 18 h
Method: as §2

Strep. agalactiae SPA1 = experiment: as above; conditions: Streptococcus agalactiae, SPA1, 18 h
Method: as §2

[7] = M. hyopneumoniae JF 435, 6 days at 37° C, read-out: MIC
[8] = 144 h, M. hyopneumoniae Str. 11, 6 days at 37° C, read-out: MIC
[9] = M. hyopneumoniae MS 16, 6 days at 37° C, read-out: MIC
[10] = M. hyopneumoniae TAM 6N, 6 days at 37° C, read-out: MIC
[11] = M. hyopneumoniae NCTC 101101, 6 days at 37° C, read-out: MIC
[12] = M. hyorhinis ATCC 23234, 6 days at 37° C, read-out: MIC
[13] = M. hyosynoviae ATCC 25591, 6 days at 37° C, read-out: MIC
[14] = M. bovigenitalium ATCC 14173, 6 days at 37° C, read-out: MIC

Row | Compound | MIC (M. hyopneumoniae JF 435; [7]) [µg/mL] | MIC (M. hyorhinis ATCC 25021) [µg/mL] | MIC (M. dispar NCTC 10125) [µg/mL] | MIC (M. pneumoniae ATCC 15492) [µg/mL] | MIC (Bacillus subtilis 6633) [µg/mL] | MIC (E. coli ESS) [µg/mL] | MIC (Staph. aureus W2827) [µg/mL] | MIC (Strep. faecalis I) [µg/mL] | MIC (E. coli NCTC 10418) [µg/mL] | MIC (E. coli E1) [µg/mL] | MIC (Bord. bronchiseptica B08) [µg/mL] | MIC (Bord. bronchiseptica B09) [µg/mL] | MIC (Past. multocida PA1) [µg/mL] | MIC (Past. haemolytica PA5) [µg/mL] | MIC [4] [µg/mL] | MIC [5] [µg/mL] | MIC (Staph. aureus Oxford) [µg/mL] | MIC [6] [µg/mL] | MIC (Strep. uberis SPU1) [µg/mL] | MIC (Strep. dysgalactiae SPD1) [µg/mL] | further results
1 | CC(=Cc1noc(-c2ccccc2)n1)CC1OCC(CC2OC2C(C)C(C)O)C(O)C1O (centres unmarked) [Example 17, 3-(1-Normon-2-yl)-5-phenyl-1,2,4-oxadiazole] | 5 (≈ 11.2 µM) | 2.5 (≈ 5.62 µM) | 0.5 (≈ 1.12 µM) | > 10 | 2 (≈ 4.5 µM) | 4 (≈ 9 µM) | 4 (≈ 9 µM) | > 128 | > 80 | > 80 | > 80 | 40 (≈ 90 µM) | 2.5 (≈ 5.62 µM) | 80 (≈ 180 µM) | 1.25 (≈ 2.81 µM) | 1.25 (≈ 2.81 µM) | 2.5 (≈ 5.62 µM) | 20 (≈ 45 µM) | 0.625 (≈ 1.41 µM) | 2.5 (≈ 5.62 µM) | MIC (M. hyopneumoniae Str. 11; [8]): 1 µg/mL (≈ 2.25 µM); MIC (M. hyopneumoniae MS 16; [9]): 1 µg/mL (≈ 2.25 µM); MIC (M. hyopneumoniae UCD 1): 2.5 µg/mL (≈ 5.62 µM); MIC (M. hyopneumoniae TAM 6N; [10]): 2.5 µg/mL (≈ 5.62 µM); MIC [1, 11]: 2.5 µg/mL (≈ 5.62 µM); MIC (M. hyorhinis ATCC 23234; [12]): 2.5 µg/mL (≈ 5.62 µM); MIC [2, 13]: 1 µg/mL (≈ 2.25 µM); MIC [3]: 0.1 µg/mL (≈ 0.225 µM); MIC (Strep. agalactiae SPA1): 5 µg/mL (≈ 11.2 µM)
2 | CC(=Cc1nnc(-c2cccs2)o1)CC1OCC(CC2OC2C(C)C(C)O)C(O)C1O (centres unmarked) [Example 6, 2-(1-Normon-2-yl)-5-(2-thienyl)-1,3,4-oxadiazole A] |  | 1 (≈ 2.22 µM) | 1 (≈ 2.22 µM) | > 10 | 4 (≈ 8.88 µM) | 8 (≈ 17.8 µM) | 16 (≈ 35.5 µM) | > 128 | > 80 | > 80 | > 80 | 80 (≈ 178 µM) | 2.5 (≈ 5.55 µM) | 20 (≈ 44.4 µM) | 2.5 (≈ 5.55 µM) | 5 (≈ 11.1 µM) | 10 (≈ 22.2 µM) | 80 (≈ 178 µM) | 5 (≈ 11.1 µM) | 40 (≈ 88.8 µM) | MIC (M. hyopneumoniae JF 435): 5 µg/mL (≈ 11.1 µM); MIC (M. hyopneumoniae Str. 11; STR.11, 144 h): 2.5 µg/mL (≈ 5.55 µM); MIC (M. hyopneumoniae MS 16): 2.5 µg/mL (≈ 5.55 µM); MIC (M. hyopneumoniae UCD 1): 5 µg/mL (≈ 11.1 µM); MIC (M. hyopneumoniae TAM 6N): 5 µg/mL (≈ 11.1 µM); MIC [1]: 5 µg/mL (≈ 11.1 µM); MIC (M. hyorhinis ATCC 23234): 2.5 µg/mL (≈ 5.55 µM); MIC [2]: 2.5 µg/mL (≈ 5.55 µM); MIC [3, 14]: 0.25 µg/mL (≈ 0.555 µM); MIC (Strep. agalactiae SPA1): 40 µg/mL (≈ 88.8 µM)
3 | CC(=Cc1nc(-c2ccccc2)no1)CC1OCC(CC2OC2C(C)C(C)O)C(O)C1O (centres unmarked) [Example 15, 5-(1-Normon-2-yl)-3-phenyl-1,2,4-oxadiazole A] | 10 (≈ 22.5 µM) | 2.5 (≈ 5.62 µM) | 2.5 (≈ 5.62 µM) | > 10 | 32 (≈ 72 µM) | 8 (≈ 18 µM) | 32 (≈ 72 µM) | > 128 | > 80 | > 80 | > 80 | 80 (≈ 180 µM) | 40 (≈ 90 µM) | > 80 | 5 (≈ 11.2 µM) | 5 (≈ 11.2 µM) | 40 (≈ 90 µM) | > 80 | 2.5 (≈ 5.62 µM) | 10 (≈ 22.5 µM) | MIC (M. hyopneumoniae Str. 11; [8]): 5 µg/mL (≈ 11.2 µM); MIC (M. hyopneumoniae MS 16; [9]): 5 µg/mL (≈ 11.2 µM); MIC (M. hyopneumoniae UCD 1; M. hyopneumoniae UCD 1, 6 days at 37° C, read-out: MIC): 10 µg/mL (≈ 22.5 µM); MIC (M. hyopneumoniae TAM 6N; [10]): 10 µg/mL (≈ 22.5 µM); MIC [1, 11]: 10 µg/mL (≈ 22.5 µM); MIC (M. hyorhinis ATCC 23234; [12]): 5 µg/mL (≈ 11.2 µM); MIC [2, 13]: 10 µg/mL (≈ 22.5 µM); MIC [3, 14]: 0.5 µg/mL (≈ 1.12 µM)
